Numbers after ± are expanded uncertainties.
Experiment: activity coefficient (dimensionless); of the first substance listed, at infinite dilution; xn = mol fraction of the nth substance listed
Conditions: 101.33 kPa, Liquid, Chromatography, x1 = 0

Structure (SMILES) | activity coefficient (323 K) | activity coefficient (338 K) | activity coefficient (353 K) | activity coefficient (308 K)
ClCCCl [1,2-dichloroethane] + CCCCCCCCCC[N+](C)(C)CCCCCCCCCC.F[B-](F)(F)F | 0.616 ± 0.065 | 0.622 ± 0.066 | 0.682 ± 0.071 | –
ClCCCl [1,2-dichloroethane] + CCCCCCCCCC[N+](C)(C)CCCCCCCCCC.[O-][Cl+3]([O-])([O-])[O-] | 0.464 ± 0.052 | 0.494 ± 0.055 | 0.482 ± 0.053 | –
C=CCCCCC [1-heptene] + CCCCCCCCCC[N+](C)(C)CCCCCCCCCC.F[B-](F)(F)F | 1.81 ± 0.19 | 1.83 ± 0.19 | 2.23 ± 0.23 | 1.79 ± 0.19
C=CCCCCC [1-heptene] + CCCCCCCCCC[N+](C)(C)CCCCCCCCCC.[O-][Cl+3]([O-])([O-])[O-] | 1.85 ± 0.19 | 2.23 ± 0.23 | 2.15 ± 0.23 | 2.69 ± 0.28
C#CCCCCC [1-heptyne] + CCCCCCCCCC[N+](C)(C)CCCCCCCCCC.F[B-](F)(F)F | 0.893 ± 0.091 | 0.894 ± 0.091 | 1.12 ± 0.12 | 0.892 ± 0.091
C#CCCCCC [1-heptyne] + CCCCCCCCCC[N+](C)(C)CCCCCCCCCC.[O-][Cl+3]([O-])([O-])[O-] | 1.1 ± 0.11 | 1.17 ± 0.12 | 1.18 ± 0.12 | 1.14 ± 0.12
C#CCCCC [1-hexyne] + CCCCCCCCCC[N+](C)(C)CCCCCCCCCC.F[B-](F)(F)F | 0.838 ± 0.086 | 0.826 ± 0.085 | 0.937 ± 0.096 | 0.85 ± 0.087
C#CCCCC [1-hexyne] + CCCCCCCCCC[N+](C)(C)CCCCCCCCCC.[O-][Cl+3]([O-])([O-])[O-] | 0.83 ± 0.085 | 0.989 ± 0.1 | 0.969 ± 0.099 | 0.732 ± 0.076
C=CCCC [1-pentene] + CCCCCCCCCC[N+](C)(C)CCCCCCCCCC.F[B-](F)(F)F | 1.2 ± 0.12 | 1.13 ± 0.12 | 1.26 ± 0.13 | 1.27 ± 0.13
C=CCCC [1-pentene] + CCCCCCCCCC[N+](C)(C)CCCCCCCCCC.[O-][Cl+3]([O-])([O-])[O-] | 1.56 ± 0.16 | 1.37 ± 0.14 | 1.31 ± 0.13 | 1.88 ± 0.2
C/C=C(\C)CC [(E)-3-methyl-2-pentene] + CCCCCCCCCC[N+](C)(C)CCCCCCCCCC.F[B-](F)(F)F | 1.71 ± 0.18 | 1.3 ± 0.13 | 1.43 ± 0.15 | –
C/C=C(\C)CC [(E)-3-methyl-2-pentene] + CCCCCCCCCC[N+](C)(C)CCCCCCCCCC.[O-][Cl+3]([O-])([O-])[O-] | 1.48 ± 0.15 | 1.49 ± 0.15 | 1.32 ± 0.14 | –
C/C=C/C(C)C [(E)-4-methyl-2-pentene] + CCCCCCCCCC[N+](C)(C)CCCCCCCCCC.F[B-](F)(F)F | 1.68 ± 0.17 | 1.45 ± 0.15 | 1.57 ± 0.16 | –
C/C=C/C(C)C [(E)-4-methyl-2-pentene] + CCCCCCCCCC[N+](C)(C)CCCCCCCCCC.[O-][Cl+3]([O-])([O-])[O-] | 1.68 ± 0.17 | 1.72 ± 0.18 | 1.46 ± 0.15 | –
CC(C)=O [acetone] + CCCCCCCCCC[N+](C)(C)CCCCCCCCCC.F[B-](F)(F)F | 0.991 ± 0.1 | 0.833 ± 0.086 | 0.86 ± 0.088 | –
CC(C)=O [acetone] + CCCCCCCCCC[N+](C)(C)CCCCCCCCCC.[O-][Cl+3]([O-])([O-])[O-] | 0.489 ± 0.054 | 0.537 ± 0.058 | 0.527 ± 0.057 | –
CC#N [acetonitrile] + CCCCCCCCCC[N+](C)(C)CCCCCCCCCC.F[B-](F)(F)F | 1.21 ± 0.12 | 1.06 ± 0.11 | 1.24 ± 0.13 | –
CC#N [acetonitrile] + CCCCCCCCCC[N+](C)(C)CCCCCCCCCC.[O-][Cl+3]([O-])([O-])[O-] | 0.543 ± 0.059 | 0.511 ± 0.056 | 0.46 ± 0.052 | –
c1ccccc1 [benzene] + CCCCCCCCCC[N+](C)(C)CCCCCCCCCC.F[B-](F)(F)F | 0.499 ± 0.055 | 0.519 ± 0.057 | 0.667 ± 0.07 | –
c1ccccc1 [benzene] + CCCCCCCCCC[N+](C)(C)CCCCCCCCCC.[O-][Cl+3]([O-])([O-])[O-] | 0.499 ± 0.055 | 0.59 ± 0.063 | 0.527 ± 0.057 | –
CCCC [butane] + CCCCCCCCCC[N+](C)(C)CCCCCCCCCC.F[B-](F)(F)F | 1.12 ± 0.12 | 1.04 ± 0.1 | 0.939 ± 0.096 | 1.21 ± 0.12
CCCC [butane] + CCCCCCCCCC[N+](C)(C)CCCCCCCCCC.[O-][Cl+3]([O-])([O-])[O-] | 1.32 ± 0.14 | 1.28 ± 0.13 | 1.24 ± 0.13 | 1.36 ± 0.14
CCC(C)=O [butanone] + CCCCCCCCCC[N+](C)(C)CCCCCCCCCC.F[B-](F)(F)F | 1.07 ± 0.11 | 0.903 ± 0.092 | 0.82 ± 0.084 | –

Structure (SMILES) | activity coefficient (323 K) | activity coefficient (338 K) | activity coefficient (353 K) | activity coefficient (308 K)
CCC(C)=O [butanone] + CCCCCCCCCC[N+](C)(C)CCCCCCCCCC.[O-][Cl+3]([O-])([O-])[O-] | 0.532 ± 0.058 | 0.59 ± 0.063 | 0.585 ± 0.063 | –
C1CCCCCC1 [cycloheptane] + CCCCCCCCCC[N+](C)(C)CCCCCCCCCC.F[B-](F)(F)F | 1.61 ± 0.17 | 1.57 ± 0.16 | 1.98 ± 0.21 | 1.65 ± 0.17
C1CCCCCC1 [cycloheptane] + CCCCCCCCCC[N+](C)(C)CCCCCCCCCC.[O-][Cl+3]([O-])([O-])[O-] | 2.04 ± 0.21 | 1.91 ± 0.2 | 1.78 ± 0.19 | 2.29 ± 0.24
C1CCCCC1 [cyclohexane] + CCCCCCCCCC[N+](C)(C)CCCCCCCCCC.F[B-](F)(F)F | 1.43 ± 0.15 | 1.4 ± 0.14 | 1.73 ± 0.18 | 1.47 ± 0.15
C1CCCCC1 [cyclohexane] + CCCCCCCCCC[N+](C)(C)CCCCCCCCCC.[O-][Cl+3]([O-])([O-])[O-] | 1.78 ± 0.19 | 1.66 ± 0.17 | 1.54 ± 0.16 | 2.05 ± 0.21
O=C1CCCCC1 [cyclohexanone] + CCCCCCCCCC[N+](C)(C)CCCCCCCCCC.F[B-](F)(F)F | 9.47 ± 1 | 7.99 ± 0.84 | 9.05 ± 0.95 | –
O=C1CCCCC1 [cyclohexanone] + CCCCCCCCCC[N+](C)(C)CCCCCCCCCC.[O-][Cl+3]([O-])([O-])[O-] | 11.7 ± 1.2 | 9.68 ± 1 | 8.46 ± 0.89 | –
C1CCCC1 [cyclopentane] + CCCCCCCCCC[N+](C)(C)CCCCCCCCCC.F[B-](F)(F)F | 1.17 ± 0.12 | 1.13 ± 0.12 | 1.28 ± 0.13 | 1.21 ± 0.12
C1CCCC1 [cyclopentane] + CCCCCCCCCC[N+](C)(C)CCCCCCCCCC.[O-][Cl+3]([O-])([O-])[O-] | 1.16 ± 0.12 | 1.26 ± 0.13 | 1.19 ± 0.12 | 1.48 ± 0.15
CCOCC [diethyl ether] + CCCCCCCCCC[N+](C)(C)CCCCCCCCCC.F[B-](F)(F)F | 1.08 ± 0.11 | 0.769 ± 0.08 | 0.79 ± 0.081 | –
CCOCC [diethyl ether] + CCCCCCCCCC[N+](C)(C)CCCCCCCCCC.[O-][Cl+3]([O-])([O-])[O-] | 1.03 ± 0.1 | 0.848 ± 0.087 | 0.74 ± 0.077 | –
CCO [ethanol] + CCCCCCCCCC[N+](C)(C)CCCCCCCCCC.F[B-](F)(F)F | 0.469 ± 0.052 | 0.408 ± 0.047 | 0.422 ± 0.048 | 0.539 ± 0.058
CCO [ethanol] + CCCCCCCCCC[N+](C)(C)CCCCCCCCCC.[O-][Cl+3]([O-])([O-])[O-] | 0.497 ± 0.055 | 0.582 ± 0.062 | 0.531 ± 0.058 | 0.623 ± 0.066
CCCCCCC [heptane] + CCCCCCCCCC[N+](C)(C)CCCCCCCCCC.F[B-](F)(F)F | 3.04 ± 0.32 | 2.62 ± 0.28 | 2.48 ± 0.26 | 3.53 ± 0.37
CCCCCCC [heptane] + CCCCCCCCCC[N+](C)(C)CCCCCCCCCC.[O-][Cl+3]([O-])([O-])[O-] | 2.96 ± 0.31 | 2.85 ± 0.3 | 2.67 ± 0.28 | 3.11 ± 0.33
C=CCCCC [hex-1-ene] + CCCCCCCCCC[N+](C)(C)CCCCCCCCCC.F[B-](F)(F)F | 1.52 ± 0.16 | 1.53 ± 0.16 | 1.76 ± 0.18 | 1.51 ± 0.16
C=CCCCC [hex-1-ene] + CCCCCCCCCC[N+](C)(C)CCCCCCCCCC.[O-][Cl+3]([O-])([O-])[O-] | 1.56 ± 0.16 | 1.8 ± 0.19 | 1.73 ± 0.18 | 2.28 ± 0.24
CCCCCC [hexane] + CCCCCCCCCC[N+](C)(C)CCCCCCCCCC.F[B-](F)(F)F | 2.51 ± 0.26 | 2.3 ± 0.24 | 2.2 ± 0.23 | 2.73 ± 0.29
CCCCCC [hexane] + CCCCCCCCCC[N+](C)(C)CCCCCCCCCC.[O-][Cl+3]([O-])([O-])[O-] | 2.48 ± 0.26 | 2.47 ± 0.26 | 2.45 ± 0.26 | 2.49 ± 0.26
CO [methanol] + CCCCCCCCCC[N+](C)(C)CCCCCCCCCC.F[B-](F)(F)F | 0.289 ± 0.038 | 0.285 ± 0.038 | 0.327 ± 0.041 | 0.294 ± 0.039
CO [methanol] + CCCCCCCCCC[N+](C)(C)CCCCCCCCCC.[O-][Cl+3]([O-])([O-])[O-] | 0.351 ± 0.043 | 0.419 ± 0.048 | 0.407 ± 0.047 | 0.447 ± 0.051
C=CCCCCCC [oct-1-ene] + CCCCCCCCCC[N+](C)(C)CCCCCCCCCC.F[B-](F)(F)F | 0.757 ± 0.078 | 0.749 ± 0.078 | 0.951 ± 0.097 | 0.765 ± 0.079
